Measured values from US20030171218A1, “Substituted 3-heteroaryl(amino- or oxy)pyrrolidin-2-ones, their preparation and use as herbicides or plant growth regulators” (priority 2001, published 2003).

What was measured:
[1] = test system: weed plants such as Digitaria sanguinalis, Echinochloa crus-galli, Setaria faberi, Setaria viridis, Sorghum halepense, Abutilon theophrasti, Amaranthum …; assay: Pre-emergence effect on weeds (greenhouse pot test); type: in vivo, monocotyledonous and dicotyledonous weed plants; conditions: application rate of 1 kg or less of active substance per hectare; scored visually after 3 to 4 weeks by comparison with untreated controls
Description: Seeds or rhizome pieces of monocotyledonous and dicotyledonous weed plants are placed in sandy loam soil in plastic pots and covered with soil. The compounds according to the invention which are formulated in the form of wettable powders or emulsion concentrates are then applied to the surface of the soil cover in the form of aqueous suspensions or emulsions at an application rate of 600 to 800 l of water/ha (converted), in various dosages.
After the treatment, the pots are placed in a greenhouse and kept under good growth conditions for the weeds. After the test plants have emerged, the damage to the plants or the negative effect on the emergence is scored visually after a test period of 3 to 4 weeks by comparison with untreated controls. As shown by the test results, compounds according to the invention have good herbicidal pre-emergence activity against a broad spectrum of weed grasses and broad-leafed weeds.

[2] = test system: harmful plants such as Digitaria sanguinalis, Echinochloa crus-galli, Setaria faberi, Setaria viridis, Sorghum halepense, Abutilon theophrasti, Amaranthum …; assay: Post-emergence effect on weeds (greenhouse pot test); type: in vivo, monocotyledonous and dicotyledonous weeds; conditions: application rate of 1 kg and less of active substance per hectare; treated at three-leaf stage; scored visually after about 3 to 4 weeks by comparison with untreated controls
Method: Seeds or rhizome pieces of monocotyledonous and dicotyledonous weeds are placed in sandy loam soil in plastic pots, covered with soil and grown in a greenhouse under good growth conditions. Three weeks after sowing, the test plants are treated at the three-leaf stage. The compounds according to the invention which were formulated as wettable powders or emulsion concentrates are sprayed, at various dosages, onto the green parts of the plants at an application rate of 600 to 800 l of water/ha (converted). After the test plants have remained in the greenhouse for about 3 to 4 weeks under optimum growth conditions, the effect of the preparations is scored visually by comparison with untreated controls. The agents according to the invention also have good herbicidal activity post-emergence against a broad spectrum of economically important weed grasses and broad-leafed weeds.

SMILES: CC(C)c1nc(N)nc(OC2CCN(c3ccccc3)C2=O)n1 (stereo not drawn) [Example A45]
- herbicidal activity pre-emergence [1]: very good herbicidal activity
- herbicidal activity post-emergence [2]: very good herbicidal activity

SMILES: CC(C)c1nc(N)nc(OC2CCN(c3cccc(C(F)(F)F)c3)C2=O)n1 (stereo not drawn) [Example A46]
- herbicidal activity pre-emergence [1]: very good herbicidal activity
- herbicidal activity post-emergence [2]: very good herbicidal activity

SMILES: Cc1cccc(N2CCC(Oc3nc(N)nc(C(C)C)n3)C2=O)c1 (stereo not drawn) [Example A47]
- herbicidal activity pre-emergence [1]: very good herbicidal activity
- herbicidal activity post-emergence [2]: very good herbicidal activity

SMILES: Cc1cc(C)cc(N2CCC(Oc3nc(N)nc(C(C)C)n3)C2=O)c1 (stereo not drawn) [Example A48]
- herbicidal activity pre-emergence [1]: very good herbicidal activity
- herbicidal activity post-emergence [2]: very good herbicidal activity

SMILES: Cc1cc(N2CCC(Oc3nc(N)nc(C(C)C)n3)C2=O)ccc1F (stereo not drawn) [Example A49]
- herbicidal activity pre-emergence [1]: very good herbicidal activity
- herbicidal activity post-emergence [2]: very good herbicidal activity

SMILES: COc1cccc(N2CCC(Oc3nc(N)nc(C(C)C)n3)C2=O)c1 (stereo not drawn) [Example A50]
- herbicidal activity pre-emergence [1]: very good herbicidal activity
- herbicidal activity post-emergence [2]: very good herbicidal activity

SMILES: CC(C)c1nc(N)nc(OC2CCN(c3cccc(OC(F)(F)F)c3)C2=O)n1 (stereo not drawn) [Example A51]
- herbicidal activity pre-emergence [1]: very good herbicidal activity
- herbicidal activity post-emergence [2]: very good herbicidal activity

SMILES: CC(C)c1nc(N)nc(OC2CCN(c3cccc(Cl)c3)C2=O)n1 (stereo not drawn) [Example A52]
- herbicidal activity pre-emergence [1]: very good herbicidal activity
- herbicidal activity post-emergence [2]: very good herbicidal activity

SMILES: CC(C)c1nc(N)nc(OC2CCN(c3cccc(F)c3)C2=O)n1 (stereo not drawn) [Example A53]
- herbicidal activity pre-emergence [1]: very good herbicidal activity
- herbicidal activity post-emergence [2]: very good herbicidal activity

SMILES: CC(C)(F)c1nc(N)nc(OC2CCN(c3cccc(C(F)(F)F)c3)C2=O)n1 (stereo not drawn) [Example A54]
- herbicidal activity pre-emergence [1]: very good herbicidal activity
- herbicidal activity post-emergence [2]: very good herbicidal activity

SMILES: Cc1cccc(N2CCC(Oc3nc(N)nc(C(C)(C)F)n3)C2=O)c1 (stereo not drawn) [Example A56]
- herbicidal activity pre-emergence [1]: very good herbicidal activity
- herbicidal activity post-emergence [2]: very good herbicidal activity

SMILES: Cc1cc(C)cc(N2CCC(Oc3nc(N)nc(C(C)(C)F)n3)C2=O)c1 (stereo not drawn) [Example A57]
- herbicidal activity pre-emergence [1]: very good herbicidal activity
- herbicidal activity post-emergence [2]: very good herbicidal activity

SMILES: Cc1cc(N2CCC(Oc3nc(N)nc(C(C)(C)F)n3)C2=O)ccc1F (stereo not drawn) [Example A58]
- herbicidal activity pre-emergence [1]: very good herbicidal activity
- herbicidal activity post-emergence [2]: very good herbicidal activity

SMILES: COc1cccc(N2CCC(Oc3nc(N)nc(C(C)(C)F)n3)C2=O)c1 (stereo not drawn) [Example A59]
- herbicidal activity pre-emergence [1]: very good herbicidal activity
- herbicidal activity post-emergence [2]: very good herbicidal activity

SMILES: CC(C)(F)c1nc(N)nc(OC2CCN(c3cccc(OC(F)(F)F)c3)C2=O)n1 (stereo not drawn) [Example A60]
- herbicidal activity pre-emergence [1]: very good herbicidal activity
- herbicidal activity post-emergence [2]: very good herbicidal activity

SMILES: CC(C)(F)c1nc(N)nc(OC2CCN(c3cccc(Cl)c3)C2=O)n1 (stereo not drawn) [Example A61]
- herbicidal activity pre-emergence [1]: very good herbicidal activity
- herbicidal activity post-emergence [2]: very good herbicidal activity

SMILES: CC(C)(F)c1nc(N)nc(OC2CCN(c3cccc(F)c3)C2=O)n1 (stereo not drawn) [Example A62]
- herbicidal activity pre-emergence [1]: very good herbicidal activity
- herbicidal activity post-emergence [2]: very good herbicidal activity

SMILES: CC(F)c1nc(N)nc(N(C)C2CCN(c3cccc(OC(F)(F)F)c3)C2=O)n1 (stereo not drawn) [Example A63]
- herbicidal activity pre-emergence [1]: very good herbicidal activity
- herbicidal activity post-emergence [2]: very good herbicidal activity

SMILES: CC(F)c1nc(N)nc(N(C)C2CCN(c3cccc(C(F)(F)F)c3)C2=O)n1 (stereo not drawn) [Example A64]
- herbicidal activity pre-emergence [1]: very good herbicidal activity
- herbicidal activity post-emergence [2]: very good herbicidal activity

SMILES: Cc1cc(C)cc(N2CCC(N(C)c3nc(N)nc(C(C)F)n3)C2=O)c1 (stereo not drawn) [Example A65]
- herbicidal activity pre-emergence [1]: very good herbicidal activity
- herbicidal activity post-emergence [2]: very good herbicidal activity

SMILES: CC(F)c1nc(N)nc(N(C)C2CCN(c3cccc(Cl)c3)C2=O)n1 (stereo not drawn) [Example A66]
- herbicidal activity pre-emergence [1]: very good herbicidal activity
- herbicidal activity post-emergence [2]: very good herbicidal activity

SMILES: Cc1cc(N2CCC(N(C)c3nc(N)nc(C(C)F)n3)C2=O)ccc1F (stereo not drawn) [Example A67]
- herbicidal activity pre-emergence [1]: very good herbicidal activity
- herbicidal activity post-emergence [2]: very good herbicidal activity

SMILES: CC(F)c1nc(N)nc(N(C)C2CCN(c3cccc(F)c3)C2=O)n1 (stereo not drawn) [Example A69]
- herbicidal activity pre-emergence [1]: very good herbicidal activity
- herbicidal activity post-emergence [2]: very good herbicidal activity

SMILES: CC(C)c1nc(N)nc(N(C)C2CCN(c3cccc(C(F)(F)F)c3)C2=O)n1 (stereo not drawn) [Example A70]
- herbicidal activity pre-emergence [1]: very good herbicidal activity
- herbicidal activity post-emergence [2]: very good herbicidal activity

SMILES: Cc1cc(C)cc(N2CCC(N(C)c3nc(N)nc(C(C)C)n3)C2=O)c1 (stereo not drawn) [Example A71]
- herbicidal activity pre-emergence [1]: very good herbicidal activity
- herbicidal activity post-emergence [2]: very good herbicidal activity

SMILES: CC(C)c1nc(N)nc(N(C)C2CCN(c3cccc(Cl)c3)C2=O)n1 (stereo not drawn) [Example A72]
- herbicidal activity pre-emergence [1]: very good herbicidal activity
- herbicidal activity post-emergence [2]: very good herbicidal activity

SMILES: Cc1cc(N2CCC(N(C)c3nc(N)nc(C(C)C)n3)C2=O)ccc1F (stereo not drawn) [Example A73]
- herbicidal activity pre-emergence [1]: very good herbicidal activity
- herbicidal activity post-emergence [2]: very good herbicidal activity

SMILES: Cc1cccc(N2CCC(N(C)c3nc(N)nc(C(C)C)n3)C2=O)c1 (stereo not drawn) [Example A74]
- herbicidal activity pre-emergence [1]: very good herbicidal activity
- herbicidal activity post-emergence [2]: very good herbicidal activity

SMILES: CC(C)c1nc(N)nc(N(C)C2CCN(c3cccc(OC(F)(F)F)c3)C2=O)n1 (stereo not drawn) [Example A75]
- herbicidal activity pre-emergence [1]: very good herbicidal activity
- herbicidal activity post-emergence [2]: very good herbicidal activity

SMILES: CC(C)c1nc(N)nc(N(C)C2CCN(c3cccc(F)c3)C2=O)n1 (stereo not drawn) [Example A76]
- herbicidal activity pre-emergence [1]: very good herbicidal activity
- herbicidal activity post-emergence [2]: very good herbicidal activity

SMILES: COc1cccc(N2CCC(N(C)c3nc(N)nc(C(C)(C)F)n3)C2=O)c1 (stereo not drawn) [Example A77]
- herbicidal activity pre-emergence [1]: very good herbicidal activity
- herbicidal activity post-emergence [2]: very good herbicidal activity

SMILES: Cc1cc(C)cc(N2CCC(N(C)c3nc(N)nc(C(C)(C)F)n3)C2=O)c1 (stereo not drawn) [Example A78]
- herbicidal activity pre-emergence [1]: very good herbicidal activity
- herbicidal activity post-emergence [2]: very good herbicidal activity

SMILES: CN(c1nc(N)nc(C(C)(C)F)n1)C1CCN(c2cccc(Cl)c2)C1=O (stereo not drawn) [Example A79]
- herbicidal activity pre-emergence [1]: very good herbicidal activity
- herbicidal activity post-emergence [2]: very good herbicidal activity

SMILES: CN(c1nc(N)nc(C(C)(C)F)n1)C1CCN(c2cccc(OC(F)(F)F)c2)C1=O (stereo not drawn) [Example A80]
- herbicidal activity pre-emergence [1]: very good herbicidal activity
- herbicidal activity post-emergence [2]: very good herbicidal activity

SMILES: CN(c1nc(N)nc(C(C)(C)F)n1)C1CCN(c2cccc(C(F)(F)F)c2)C1=O (stereo not drawn) [Example A81]
- herbicidal activity pre-emergence [1]: very good herbicidal activity
- herbicidal activity post-emergence [2]: very good herbicidal activity

SMILES: CN(c1nc(N)nc(C(C)(C)F)n1)C1CCN(c2cccc(F)c2)C1=O (stereo not drawn) [Example A82]
- herbicidal activity pre-emergence [1]: very good herbicidal activity
- herbicidal activity post-emergence [2]: very good herbicidal activity

SMILES: Cc1cc(N2CCC(N(C)c3nc(N)nc(C(C)(C)F)n3)C2=O)ccc1F (stereo not drawn) [Example A83]
- herbicidal activity pre-emergence [1]: very good herbicidal activity
- herbicidal activity post-emergence [2]: very good herbicidal activity

SMILES: Cc1cccc(N2CCC(N(C)c3nc(N)nc(C(C)(C)F)n3)C2=O)c1 (stereo not drawn) [Example A84]
- herbicidal activity pre-emergence [1]: very good herbicidal activity
- herbicidal activity post-emergence [2]: very good herbicidal activity

SMILES: Cc1cccc(N2CCC(Nc3nc(N)nc(C(C)(C)F)n3)C2)c1 (stereo not drawn) [Example E7]
- herbicidal activity pre-emergence [1]: very good herbicidal activity
- herbicidal activity post-emergence [2]: very good herbicidal activity

SMILES: Cc1cccc(N2CCC(Nc3nc(N)nc(C(C)F)n3)C2)c1 (stereo not drawn) [Example E8]
- herbicidal activity pre-emergence [1]: very good herbicidal activity
- herbicidal activity post-emergence [2]: very good herbicidal activity

SMILES: Cc1cccc(N2CCC(Nc3nc(N)nc(C(C)C)n3)C2)c1 (stereo not drawn) [Example E9]
- herbicidal activity pre-emergence [1]: very good herbicidal activity
- herbicidal activity post-emergence [2]: very good herbicidal activity

SMILES: Cc1cc(N2CCC(Nc3nc(N)nc(C(C)(C)F)n3)C2)ccc1F (stereo not drawn) [Example E10]
- herbicidal activity pre-emergence [1]: very good herbicidal activity
- herbicidal activity post-emergence [2]: very good herbicidal activity
